Positions count from the first letter of the chain named. Where “and” joins values, the source holds several entries; their conditions need not be identical. Identical values can stand only once. Entries after “also recorded” stand apart in the source; their conditions may differ.
Columns and labels:
animals = experiment: Acute oral toxicity (LD50) of MSF in animals; format: in vivo, rats
Method: The acute oral LD50, as indicated by the data, was determined to be greater than 3 mg/kg but less than 4 mg/kg.

[1] = molecular target: T1, brain acetylcholinesterase (Rattus norvegicus, UniProt P37136); conditions: cited from earlier work
T1 construct: host or cells: rodent brain, dosed in vivo
T1 sequence (P37136 32-614): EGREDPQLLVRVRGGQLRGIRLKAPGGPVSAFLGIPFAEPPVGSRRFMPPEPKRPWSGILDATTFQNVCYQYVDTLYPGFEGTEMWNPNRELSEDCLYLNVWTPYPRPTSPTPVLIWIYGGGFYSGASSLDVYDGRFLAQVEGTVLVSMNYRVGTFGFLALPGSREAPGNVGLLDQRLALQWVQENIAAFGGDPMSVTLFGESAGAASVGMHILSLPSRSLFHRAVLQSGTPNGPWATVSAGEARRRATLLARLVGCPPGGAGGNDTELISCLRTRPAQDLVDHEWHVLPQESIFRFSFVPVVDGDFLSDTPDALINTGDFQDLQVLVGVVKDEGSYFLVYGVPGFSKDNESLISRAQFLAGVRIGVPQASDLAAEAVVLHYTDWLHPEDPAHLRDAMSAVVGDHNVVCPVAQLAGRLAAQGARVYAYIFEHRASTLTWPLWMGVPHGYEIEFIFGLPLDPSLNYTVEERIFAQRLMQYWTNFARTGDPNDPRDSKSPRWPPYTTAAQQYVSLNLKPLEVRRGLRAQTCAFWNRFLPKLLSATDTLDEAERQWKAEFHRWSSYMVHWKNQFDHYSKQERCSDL

human cortex AChE = molecular target: T2, human cortex AChE (Homo sapiens, UniProt P22303); conditions: in vitro (Pacheco et al., 1995); cited from earlier work
T2 construct: host or cells: human cortex, in vitro
T2 sequence (P22303 32-614): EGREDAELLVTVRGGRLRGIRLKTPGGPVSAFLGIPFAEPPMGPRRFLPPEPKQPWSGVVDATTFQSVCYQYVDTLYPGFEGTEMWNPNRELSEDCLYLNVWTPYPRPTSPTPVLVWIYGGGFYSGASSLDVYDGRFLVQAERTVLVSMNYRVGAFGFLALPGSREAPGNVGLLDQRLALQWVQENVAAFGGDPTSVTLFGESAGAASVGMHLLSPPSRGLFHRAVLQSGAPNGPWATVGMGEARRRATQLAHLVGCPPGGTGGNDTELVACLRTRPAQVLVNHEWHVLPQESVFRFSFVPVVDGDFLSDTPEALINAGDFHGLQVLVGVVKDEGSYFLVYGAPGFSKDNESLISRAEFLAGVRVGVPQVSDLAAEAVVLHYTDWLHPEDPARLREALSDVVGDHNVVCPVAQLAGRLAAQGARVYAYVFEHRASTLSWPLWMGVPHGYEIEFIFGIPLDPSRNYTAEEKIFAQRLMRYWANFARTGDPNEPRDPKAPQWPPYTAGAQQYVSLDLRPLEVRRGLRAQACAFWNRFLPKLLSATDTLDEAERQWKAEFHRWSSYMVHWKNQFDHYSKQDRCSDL

rats [2] = experiment: Daily dosing with 1.0 mg/kg MSF/peanut oil in rats (clinical signs of distress and/or death); format: in vivo
brain AChE [3] = conditions: oral MSF 0.5 mg/kg daily, after 5 days of administration; cited from earlier work
[4] = test system: brain acetylcholinesterase; conditions: cited from earlier work
[5] = test system: septal choline acetyltransferase; conditions: cerebrally ischemic animals, versus vehicle-treated animals (U.S. Patent Publication 2003/0087959); cited from earlier work
aged rats = conditions: daily doses (Malin et al., 1993); cited from earlier work
rats [6] = experiment: Alternating day dosing with 2.0 mg/kg MSF/peanut oil in rats (death); format: in vivo; conditions: 2 mg/kg every other day; for Number Alive/Numbered Treated / lethality: oral
Method: To confirm the “pulsing” theory for MSF administration, the inventor continued the experiment described above and extended MSF treatment to double the total lethal dose observed in Example 1 (from 4 mg/kg to 8 mg/kg). Rats in were treated at 2 mg/kg/every other day for 2 more round (total of 8 mg/kg in 8 days).

brain AChE [7] = molecular target: T3, brain AChE (Mus musculus, UniProt P21836); conditions: ex vivo, mice, without toxicity (Kobayashi et al., 1999); cited from earlier work
T3 construct: host or cells: mouse brain, ex vivo
T3 sequence (P21836 32-614): T1 sequence (P37136 32-614) with I59V, T109A, S128A, T144A, S271A, D313E, A392T, V467T, Q478K, R499Q

rats [8] = conditions: daily doses (Palacios-Esquivel et al., 1993); cited from earlier work
[9] = molecular target: T4, acetylcholinesterase in the brain (Rattus norvegicus, UniProt P37136); conditions: cerebrally ischemic animals (U.S. Patent Publication 2003/0087959); cited from earlier work
T4 construct: host or cells: brain of cerebrally ischemic animals, dosed in vivo
T4 sequence (P37136 32-614): T1 sequence (P37136 32-614)

rats [10] = conditions: daily doses (Borlongan et al., 2005); cited from earlier work
brain AChE [11] = molecular target: T5, brain AChE (Rattus norvegicus, UniProt P37136); conditions: ex vivo, rats, without toxicity (Moss et al., 1985); cited from earlier work
T5 construct: host or cells: rat brain, ex vivo
T5 sequence (P37136 32-614): T1 sequence (P37136 32-614)

[12] = test system: enzyme in the periphery (cholinesterase); conditions: rodents, administered daily at low doses (Moss et al., 1988); cited from earlier work
[13] = test system: cerebrally ischemic animals; conditions: compared to untreated controls (U.S. Patent Publication 2003/0087959); cited from earlier work
[14] = test system: patients with senile dementia of Alzheimer type; conditions: patients with senile dementia of Alzheimer type (U.S. Pat. No. 5,798,392); cited from earlier work
[15] = relatively small doses over a long period of time (Moss et al., 1988; 1985)

CS(=O)(=O)F [MSF, methanesulfonyl fluoride]
Number Dead/Number Treated, Combination (animals; 1 mg/kg (0.4 mg/mL)): 0/10
Number Dead/Number Treated, Females (animals; 1 mg/kg (0.4 mg/mL)): 0/5
Number Dead/Number Treated, Males (animals; 1 mg/kg (0.4 mg/mL)): 0/5
Number Dead/Number Treated, Combination (animals; 2 mg/kg (0.8 mg/mL)): 0/10
Number Dead/Number Treated, Females (animals; 2 mg/kg (0.8 mg/mL)): 0/5
Number Dead/Number Treated, Males (animals; 2 mg/kg (0.8 mg/mL)): 0/5
Number Dead/Number Treated, Combination (animals; 3 mg/kg (1.2 mg/mL)): 1/10
Number Dead/Number Treated, Females (animals; 3 mg/kg (1.2 mg/mL)): 1/5
Number Dead/Number Treated, Males (animals; 3 mg/kg (1.2 mg/mL)): 0/5
Number Dead/Number Treated, Combination (animals; 4 mg/kg (1.6 mg/mL)): 10/10
Number Dead/Number Treated, Females (animals; 4 mg/kg (1.6 mg/mL)): 5/5
Number Dead/Number Treated, Males (animals; 4 mg/kg (1.6 mg/mL)): 5/5
inhibition of rodent brain acetylcholinesterase [1, 15]: 80-90%
inhibition of brain cholinesterase (average) ([1]; rodents, administered daily at low doses (Moss et al., 1988)): 90%
selectivity for inhibition of human cortex AChE compared to butyrylcholinesterase (human cortex AChE): highly selective
clinical signs of distress and/or death (rats [2]; oral gavage, 1.0 mg/kg daily, MSF/peanut oil 1.0 mg/ml, 1 mg/kg): high toxicity and animal deaths
Number Alive/Numbered Treated (rats [2]; oral, 1 mg/kg daily, 4 days): 0/7 (4 males + 3 female)
inhibition in the brain (brain AChE [3]): 90%
inhibition of brain AChE ([4]; ex vivo, monkey cortex, without toxicity (Moss et al., 1988)): up to 80%
inhibition of monkey brain acetylcholinesterase [4, 15]: 80-90%
septal choline acetyltransferase immunoreactivity [5]: more intense septal choline acetyltransferase immunoreactivity
reversing normal age-related memory impairment (aged rats): highly effective
animals survived (rats [6]; total of 8 mg/kg in 8 days): 83.3%
Number Alive/Numbered Treated (rats [6]; 4 days (total 4 mg/kg)): 6/6 (3 males + 3 female)
lethality (rats [6]; 4 days (total 4 mg/kg)): no lethal event; also recorded: By Day 4, all rats were alive and it was decided to continue the treatment
Number Alive/Numbered Treated (rats [6]; 8 days (total 8 mg/kg)): 5/6 (3 males + 3 female) and 5/6
lethality (rats [6]; 8 days (total 8 mg/kg), follow-up over two weeks): 1 animal was found dead
inhibition of brain AChE (brain AChE [7]): up to 80%
reversing scopolamine-induced amnesia (rats [8]): highly effective
inhibition of acetylcholinesterase in the brain [9]: about 90%
reversing ischemia-induced cognitive deficits (rats [10]): highly effective
inhibition of brain AChE (brain AChE [11]): up to 80%
inhibition of enzyme in the periphery [12]: less than 30%
cognitive performance [13]: improved cognitive performance
cognitive performance in patients [14]: improvement in cognitive performance

— US20100256243A1, “Dosing Regimen for the Treatment of Alzheimer's Disease With Sulfonyl Fluorides” (priority 2009, published 2010)
